{
  "source": "patent US8058258B2",
  "about": "“Methods for cancer therapy and stem cell modulation” (Agency for Science, Technology and Research, priority 2006, dated 2011)",
  "key": {"[1]": {"system": "Suv39h1", "test": "Western blot of Suv39h1 protein levels", "type": "cell-based, human", "settings": "HCT116 or MCF-7 cells, 5 μM, 48 and 72 hours", "description": "(§1) Cell lines used in these examples were purchased from the American Type Culture Collection (Manassas, Va.). Cells were maintained in DMEM supplemented with 10% fetal bovine serum with glutamine, penicillin, and streptomycin. For drug treatment, cells were seeded the day before the drug treatment. Cells were treated with 5 μM 3-Deazaneplanocin A or 2 μM 5-aza-2'-deoxycytidine (5-AzaC; Sigma) for 72 hours and trichostatin A (TSA; Sigma) at 100 nM for 24 hours. For co-treatment of cells with 5-AzaC and TSA, 5-Aza was added for 48 hours and followed by TSA for 24 hours. Cell pellets were first lysed in RadioImmuno Precipitation Assay (RIPA) buffer, consisting of an aqueous solution of 25 mM Tris-HCl pH 7.6, 150 mM NaCl, 1% Nonidet-P 40 (NP-40), 1% sodium deoxycholate and 0.1% sodium dodecylsulfate (SDS), before further sonicated using a tissue homogeniser to release all the proteins. Equal amounts of protein were separated on SDS-polyacrylamide gels and transferred to polyvinylidene difluoride (PVDF) membranes. The blots were probed with antibodies against: EED (07-368), SUZ12 (07-379), SUV39H1 (07-550), BMI1 (05-637), tri-methylated H3-K27 (07-449), tri-methylated H3-K9 (07-442) and Acetyl-Histone H3 (06-599), and were purchased from Upstate. EZH2 (AC22) and Histone H3 (3H1) were from Cell Signaling. […]"}, "[2]": {"system": "histone acetylation", "test": "Western blot of histone acetylation", "type": "cell-based, human", "settings": "HCT116 or MCF-7 cells, 5 μM, 48 and 72 hours", "description": "as §1"}, "[3]": {"system": "CC33D cells", "test": "Microscopy examination of cell death in primary colon epithelial cells", "type": "cell-based", "settings": "normal primary colon epithelial CC33D cells compared to HCT116", "excerpt": "To determine whether 3-deazaneplanocin preferentially induces apoptosis in cancer cells, the apoptosis induction between MCF-7 cells and the non-cancerous breast epithelial MCF10A cells was compared for various periods of time. […] In addition, normal primary colon epithelial CC33D cells, like MCF10A cells, were also resistant to 3-deazaneplanocin treatment compared to colorectal cancer HCT116 cell, as evaluated by microscopy examination (FIGS. 3G & 3H)."}, "[4]": {"system": "RNA polymerase II binding to PRC2 target gene promoters", "test": "ChIP of RNA Pol II binding to PRC2 target gene promoters", "type": "cell-based, human", "settings": "MCF-7 cells, 5 μM, 48 hours", "description": "ChIP assays were performed as described previously. […] MCF-7 cell were seeded into 6-well plates at 30% confluence and treated with or without 3-deazaneplanocin (5 μM) for 48 hours. Cells were washed once in 1× phosphate-buffered saline (PBS) and then treated with 1% formaldehyde in PBS at 37° C. for […] followed by the addition of glycine to a final concentration of 0.125 M for 5 mM. Cells were then scraped on ice and centrifuged at 1500 rpm for 5 mM at 4° C. After washing with PBS cell pellets were resuspended in 1 mL of cold lysis buffer (10 mM HEPES at pH 7.5, 1 mM EDTA at pH 8.0, 400 mM NaCl, 10% glycerol, 0.5% NP-40, 0.5 mM phenylmethylsulfonyl fluoride, and protease inhibitors [1 mM benzamidine, 3 mg/mL leupeptin, 0.1 mg/mL bacitracin, 1 mg/mL macroglobulin]) followed by centrifugation at 11,500 rpm in a microfuge for 5 min at 4° C. to remove protein not cross-linked to chromatin. The resulting pellets were then resuspended again in 1 mL of cold lysis buffer and sonicated with a Heat Systems-Ultrasonics, Inc. W-220 sonicator at 20% output for a total of 2 mM (pulsed: 30 sec on/30 sec off). The resulting solution was cleared by centrifugation at maximum speed in a microfuge for 10 mM at 4° C. At this point 5% of the solution was taken and stored at −20° C. for the input chromatin sample. […]"}},
  "data": [
    {"molecule": "Nc1nccc2c1ncn2C1C=C(CO)C(O)C1O", "note": "(stereo not shown) [3-deazaneplanocin, 5-(4-amino-1H-imidazo[4,5-c]pyridin-1-yl)-3-(hydroxymethyl)-3-cyclopentene-1,2-diol]", "values": [
      {"measurement": "Suv39h1 protein levels", "setting": "[1]", "result": "not affected"},
      {"measurement": "histone acetylation", "setting": "[2]", "result": "did not affect"},
      {"measurement": "sensitivity to treatment, microscopy examination", "setting": "[3]", "result": "resistant"},
      {"measurement": "binding of RNA Pol II to PRC2 target gene promoters (ChIP)", "setting": "[4]", "result": "increased"}
    ]}
  ]
}
